Laboratory results reported in patent US20210154317A1, “COMPOSITIONS AND METHODS FOR THE TREATMENT OF VIRAL INFECTIONS” (Silverback Therapeutics, Inc., priority 2017, published 2021).

System: monax PBMC
Test: Marmota TNFα expression in stimulated PBMC by real time PCR
Format: cell-based
Conditions: TaqMan real time PCR
Procedure: Total RNA was extracted from stimulated monax PBMC using the RNeasy®Mini kit (Qiagen, Maryland, MD) according to the manufacturer's protocol. Briefly, cells were pelleted and resuspended in 600 ul RLT buffer. The sample was vortexed and then run through a QIAshredder column. RNA was extracted from the supernatant and eluted with a 30 uL volume. RNA purity was assessed (A260/A280) using a Nanodrop one spectrophotometer (Thermofisher Scientific, Waltham, Mass., USA). For removal of genomic DNA, 800 ng RNA was incubated with 2 units DNase I (RNase-free) (New England Biolabs, Ipswich, Mass., USA) in DNase reaction buffer at 37° C. for 10 min. […]
The generation of oligonucleotide dimers for each TaqMan primer pair was assessed using Power SYBR®Green PCR Master-Mix (Foster City, Calif., Applied Biosystems) with melting curve analysis, according to the manufacturer's instructions. […] Data were analyzed using the Step One Software to generate Ct value for each sample.
A plot of Ct versus log copy number standard curve was generated using synthesized monax TNFα cDNA standard. The Ct value for each data point was then determined and normalized to the standard curve to obtain the copy number. […]

Row | Structure (SMILES) | monax TNFα gene activation (copy number per ng of mRNA)
1 | CCOCc1nc2c(N)nc3ccccc3c2n1CC(C)(C)OCCNC(=O)C(C)(C)N | potent activation
2 | CCCN(CCC)C(=O)C1=Cc2ccc(C(=O)Nc3cnc4c(c3)CNCC4)cc2N=C(N)C1 [Compound 1.50, 2-amino-N^4,N^4-dipropyl-N^8-(5,6,7,8-tetrahydro-1,6-naphthyridin-3-yl)-3H-benzo[b]azepine-4,8-dicarboxamide] | potent activation
